In ChEMBL document CHEMBL1129467, “Synthesis and HIV inhibition activity of 2',3'-dideoxy-3'-C-hydroxymethyl nucleosides” (1996):
Values joined by “and” are separate entries in the source; they are usually repeats but may differ in a detail not shown here. Identical values can stand only once.

Tests used:
Assay type in all cases: functional, Homo sapiens
[1] = test system: H9; test: (§1) Compound was tested for the inhibiting acute infection of H9 cells over 7 days at 50 mM
[2] = test system: H9; test: Compound was tested for the cytotoxicity in H-9 cells infected with HIV-IIIB over 14 days
[3] = test system: H9; test: Compound was tested for the inhibiting acute infection of H9 cells over 7 days at 1 mM
[4] = test system: H9; test: Compound was tested for the inhibiting acute infection of H9 cells over 14 days 1 mM
[5] = test system: H9; test: Compound was tested for the cytotoxicity in H-9 cells infected with HIV-IIIB over 7 days
[6] = test system: H9; test: Compound was tested for the effective inhibiting acute infection of H9 cells over 7 days at 100 mM
[7] = test system: H9; test: Compound was Tested for the inhibiting acute infection of H9 cells over 7 days at 1 mM
[8] = test system: H9; test: Compound was tested for the effective inhibiting acute infection of H9 cells over 7 days at 50 mM
[9] = test system: H9; test: as §1; remark: listed apart in the source
[10] = test system: H9; test: Compound was tested for the cytotoxicity in H-9 cells infected with HIV-IIIB over 9 days

CCCCCCOc1ncnc2c1ncn2[C@H]1C[C@H](CO)[C@@H](CO)O1
P24 concentration [1]: 1 ng/mL and 3 ng/mL | P24 concentration [2]: 80 ng/mL | P24 concentration [3]: 2 ng/mL | P24 concentration [4]: 90 ng/mL | P24 concentration [5]: 1 ng/mL

COc1ncnc2c1ncn2[C@H]1C[C@H](CO)[C@@H](CO)O1
P24 concentration [2]: 6 ng/mL | P24 concentration [3]: 80 ng/mL | P24 concentration [5]: 12 ng/mL

Nc1ncnc2c1ncn2[C@@H]1C[C@H](CO)[C@@H](CO)O1
P24 concentration [2]: 80 ng/mL | P24 concentration [5]: 10 ng/mL

OC[C@H]1C[C@H](n2cnc3cncnc32)O[C@@H]1CO
P24 concentration [2]: 80 ng/mL | P24 concentration [5]: 8 ng/mL

OC[C@H]1C[C@@H](n2cnc3c(Cl)ncnc32)O[C@@H]1CO
P24 concentration [2]: 80 ng/mL | P24 concentration [5]: 2 ng/mL

COc1ncnc2c1ncn2[C@@H]1C[C@H](CO)[C@@H](CO)O1
P24 concentration [2]: 80 ng/mL | P24 concentration [5]: 5 ng/mL

Nc1ncnc2c1ncn2[C@H]1C[C@H](CO)[C@@H](CO)O1
P24 concentration [1]: 0.5 ng/mL and 1 ng/mL | P24 concentration [2]: 2 ng/mL | P24 concentration [4]: 90 ng/mL | P24 concentration [6]: 0.1 ng/mL | P24 concentration [7]: 6 ng/mL | P24 concentration [8]: 100 ng/mL | P24 concentration [5]: 0.5 ng/mL

OC[C@H]1C[C@@H](n2cnc3cncnc32)O[C@@H]1CO
P24 concentration [1]: 90 ng/mL | P24 concentration [2]: 80 ng/mL | P24 concentration [3]: 6 ng/mL | P24 concentration [4]: 90 ng/mL | P24 concentration [5]: 12 ng/mL | P24 concentration [9]: 14 ng/mL

CCCCCCOc1ncnc2c1ncn2[C@@H]1C[C@H](CO)[C@@H](CO)O1
P24 concentration [2]: 80 ng/mL | P24 concentration [5]: 4 ng/mL

OC[C@H]1C[C@H](n2cnc3c(Cl)ncnc32)O[C@@H]1CO
P24 concentration [2]: 80 ng/mL | P24 concentration [5]: 2 ng/mL

Cc1cn([C@H]2C[C@H](N=[N+]=[N-])[C@@H](CO)O2)c(=O)[nH]c1=O [ZIDOVUDINE]
P24 concentration [10]: 600 ng/mL | P24 concentration [5]: 100 ng/mL
